In patent US7638509B2, “Diene compounds and formulations” (priority 2003, dated 2009):
Entries after “also recorded” stand apart in the source; their conditions may differ.

Tests used:
[1] = molecular target: T1, wild-type AR (Homo sapiens, UniProt P10275); assay: Anti-DHT activity on AR transcription, MMTV-Luc reporter in PC-3 cells transfected with AR; type: cell-based; parameters: expressed in transfected cells; host or cells: PC-3; details: for suppression of DHT-induced AR transactivation (in words): PC-3, 1 nM DHT, compound at 0.01, 0.1 or 1 μM; for antagonistic effects on DHT-enhanced AR transactivation (in words): compounds related to ADEK, cell line not given
T1 sequence (P10275 1-920): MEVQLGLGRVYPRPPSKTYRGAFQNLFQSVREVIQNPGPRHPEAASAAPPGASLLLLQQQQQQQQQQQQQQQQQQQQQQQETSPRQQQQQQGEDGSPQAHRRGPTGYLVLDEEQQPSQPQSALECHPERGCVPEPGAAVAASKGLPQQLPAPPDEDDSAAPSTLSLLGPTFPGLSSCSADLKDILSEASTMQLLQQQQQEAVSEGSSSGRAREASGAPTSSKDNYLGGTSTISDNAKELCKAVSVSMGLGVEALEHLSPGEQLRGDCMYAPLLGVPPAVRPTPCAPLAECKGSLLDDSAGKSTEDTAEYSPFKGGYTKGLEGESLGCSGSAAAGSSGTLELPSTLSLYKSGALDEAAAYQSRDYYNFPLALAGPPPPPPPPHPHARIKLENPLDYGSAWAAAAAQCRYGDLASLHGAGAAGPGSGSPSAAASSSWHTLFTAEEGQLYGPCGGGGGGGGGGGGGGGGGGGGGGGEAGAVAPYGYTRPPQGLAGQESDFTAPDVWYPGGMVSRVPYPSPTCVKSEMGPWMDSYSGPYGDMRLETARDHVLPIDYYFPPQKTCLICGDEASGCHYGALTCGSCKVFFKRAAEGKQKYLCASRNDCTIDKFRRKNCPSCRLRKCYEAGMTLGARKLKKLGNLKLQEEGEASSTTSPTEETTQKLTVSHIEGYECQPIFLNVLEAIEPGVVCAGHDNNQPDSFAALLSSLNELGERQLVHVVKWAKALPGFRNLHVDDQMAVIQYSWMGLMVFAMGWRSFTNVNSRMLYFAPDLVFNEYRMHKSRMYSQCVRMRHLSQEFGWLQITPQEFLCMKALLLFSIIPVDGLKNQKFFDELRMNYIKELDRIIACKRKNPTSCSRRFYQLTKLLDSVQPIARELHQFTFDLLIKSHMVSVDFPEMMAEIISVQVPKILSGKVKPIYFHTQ
Procedure: (§1) Cell Culture, Transfection, and Reporter Gene Assay. The human prostate cancer cell lines, LNCaP, PC-3, and DU145, and non-prostate cancer cell line COS-1 were maintained in RPMI or Dulbecco's modified Eagle's medium (DMEM) (Life Technologies) supplemented with 10% fetal bovine serum (FBS). Transfections and luciferase (Luc) assays were performed as previously described (Miyamoto, H., Yeh, S., Wilding, G. & Chang, C. (1998) Proc. Natl. Acad. Sci. USA 95, 7379-7384; Miyamoto, H., Rahman, M., Takatera, H., Kang, H.-Y., Yeh, S., Chang, H.-C., Nishimura, K., Fujimoto, N. & Chang, C. (2002) J. Biol. Chem. 277, 4609-4617). Briefly, cells seeded to reach a density of 50-60% confluence in 12 well tissue culture plates were transfected with 1.5 μg of DNA according to “SuperFect transfection” instructions (Qiagen). After 2-3 h incubation, cells were treated with medium supplemented with charcoal-stripped FBS containing either ethanol or ligands for 24 h. The cells were then harvested and whole cell extracts were used for Luc assay. The Luc activity was determined using a Dual-Luciferase Reporter Assay System (Promega) and luminometer.
(§2) To accomplish these studies, PC-3 cells were transfected with the wild-type AR expression plasmid pSG5-AR and MMTV-Luc. […] The Luc activity was measured relative to that of ethanol treatment (set as 1-fold). Values from the mean±SD of at least three determinations were used. PC-3 cells were transfected with the pSG5-AR and MMTV-Luc. […] Values from the mean±SD of at least three determinations were obtained.

[2] = tested on: LNCaP cells; assay: LNCaP cell growth, cell count by hemocytometer; type: cell-based, human; details: 1 nM DHT; 1 μM compound in presence of DHT
Procedure: The mean±SD of three separate experiments was determined. […] Total cell number was counted by hemocytometer. The mean of at least three determinations was determined.

[3] = tested on: PSA; assay: PSA expression in LNCaP cells, Western blot; type: cell-based, human; details: 48 h
Procedure: Western Blot. […] An antibody for -actin (Santa Cruz Biotechnology) was used as the internal control. Blots were quantitated by Collage software (Fotodyne).
The 33-kDa protein was quantitated. β-Actin expression was used as an internal control. […] The mean±SD of three separate experiments was determined. […] Total cell number was counted by hemocytometer. The mean of at least three determinations was determined.

[4] = molecular target: T1, wild-type AR; assay: AR transcriptional activity (androgenic activity), MMTV-Luc reporter in PC-3 cells transfected with wild-type AR; type: cell-based; parameters: expressed in transfected cells; host or cells: PC-3; details: PC-3, wild-type AR plasmid + MMTV-Luc, compound at 1000 nM, 24 h
Procedure: as §1
Anti-DHT Effect of DHEA Derivatives with Low Androgenic Activity on AR Transcription. Test compounds as antiandrogenic compounds, were characterized by analysis of their ability to induce AR transcriptional activity in the AR-negative PC-3 cell line. The Luc activity was determined in the cell extracts with transient transfection of wild-type AR plasmid and androgen response element-reporter plasmid (mouse mammary tumor virus (MMTV)-Luc). After transfection, the cells were treated with various compounds at 0.1-1,000 nM.
as §2

Structure (SMILES)	suppression of DHT-induced AR transactivation (in words) [1]	also measured
C[C@]12C=C[C@H](O)CC1=CC[C@@H]1[C@@H]2CC[C@@]2(C)[C@H]1CCC21OCCO1		melting point: 138 to 140 °C
C[C@]12CC[C@H]3[C@@H]([C@H](O)CC4C[C@@H](O)CC[C@@]43C)[C@@H]1CC[C@@H]2O (stereo partly drawn) [3β,7α,17β-trihydroxyandrostane]	little or no capacity	
C[C@]12CC[C@H]3[C@@H]([C@@H](O)C=C4C[C@@H](O)CC[C@@]43C)[C@@H]1CC[C@@H]2O [3β,7β,17β-trihydroxyandrost-5-ene]	little or no capacity	
COC(=O)[C@H]1CC[C@@]2(C)C(=CC(=O)[C@@H]3[C@@H]2CC[C@]2(C)C(=O)[C@H](C(=O)OC)C[C@@H]32)C1 [3β,16α-bis-carbomethoxyandrost-5-ene-7,17-dione]	less effective	
C[C@]12CC[C@H]3[C@@H](CCC4=C[C@@H](O)CC[C@@]43C)[C@@H]1CC[C@@H]2O [3β,17β-dihydroxyandrost-4-ene]	less effective	
CC(=O)O[C@H]1C=C[C@@]2(C)C(=CC[C@H]3[C@@H]4CC[C@H](O)[C@@]4(C)CC[C@@H]32)C1 [3β-acetoxy-17β-hydroxyandrost-1,5-diene]	less effective	antagonistic effects on DHT-enhanced AR transactivation (in words) [1]: did not show significant antagonistic effects
CC12CCC3(CC1=CC(O)C1C2CCC2(C)C1CCC21OCCO1)OCCO3 (stereo not drawn) [7α-hydroxyandrost-5-ene-3,17-bis ethylene ketal]	less effective; also recorded: little or no capacity	
C[C@]12CC[C@H]3[C@@H]([C@@H](O)C=C4CC5(CC[C@@]43C)OCCO5)[C@@H]1CC[C@@H]2O [7β,17β-dihydroxyandrost-5-ene-3-ethylene ketal]	less effective	
C[C@]12CC[C@H](O)C[C@@H]1CC[C@@H]1[C@@H]2CC[C@]2(C)C(=O)[C@H](Br)C[C@@H]12 [16α-bromoepiandrosterone]	little or no capacity	
CC(=O)O[C@H]1CC[C@H]2[C@@H]3CC(=O)C4=CC(=O)CC[C@]4(C)[C@H]3CC[C@]12C [17β-acetoxyandrost-4-ene-3,6-dione]	little or no capacity	
CCC(=O)O[C@H]1CC[C@H]2[C@@H]3C(=O)C=C4CC5(CC[C@]4(C)[C@H]3CC[C@]12C)OCCO5 [17β-propionony-7-oxoandrost-5-en-3-ethylene ketal]	little or no capacity	
C[C@]12CCC(=O)C[C@@H]1CC[C@@H]1[C@@H]2CC[C@]2(C)[C@@H](O)CC[C@@H]12 [DHT, dihydrotestosterone, reference compound]		effect on LNCaP cell growth, DHT alone or compound with DHT (in words) [2]: significantly increased cell growth; endogenous PSA expression over mock treatment ([3]; 1 nM DHT or 1 μM HF, casodex, ADEK in absence of DHT): 4.3 fold
C[C@]12CC[C@H]3[C@@H]([C@H](O)C=C4C[C@@H](O)CC[C@@]43C)[C@@H]1CC[C@@H]2O [No. 5, 3β,7α,17β-trihydroxyandrost-5-ene]	modest suppression	induction on AR transcription as compared to mock treatment [4]: marginal induction
CC(=O)O[C@H]1C=C[C@@]2(C)C(=CC[C@@H]3[C@@H]2CC[C@]2(C)C(=O)CC[C@@H]32)C1 [No. 14, 3β-acetoxyandrost-1,5-diene-17-one]	modest suppression	antagonistic effects on DHT-enhanced AR transactivation (in words) [1]: did not show significant antagonistic effects; induction on AR transcription as compared to mock treatment [4]: marginal induction
C[C@]12C=C[C@H](O)CC1=CC[C@@H]1[C@@H]2CC[C@]2(C)C(=O)CC[C@@H]12 [No. 16, 3β-hydroxyandrost-1,5-diene-17-one]	modest suppression	antagonistic effects on DHT-enhanced AR transactivation (in words) [1]: did not show significant antagonistic effects; induction on AR transcription as compared to mock treatment [4]: marginal induction
C[C@]12C=CC(=O)C=C1CC[C@@H]1[C@@H]2CC[C@]2(C)C(=O)CC[C@@H]12 [androst-1,4-diene-3,17-dione]	less effective	antagonistic effects on DHT-enhanced AR transactivation (in words) [1]: did not show significant antagonistic effects
CC(O)(CS(=O)(=O)c1ccc(F)cc1)C(=O)Nc1ccc(C#N)c(C(F)(F)F)c1 (stereo not shown) [casodex, bicalutamide]		DHT-induced PSA expression decreased to (DHT = 100%) ([3]; 1 μM compound + 1 nM DHT): 58%
